The source of these data is PubChem BioAssay (NCI).

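48-hour exposure; five concentrations; linearly interpolated endpoints. GI50 marks 50% less growth. Definition used: TGI = concentration required for complete inhibition of growth.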

What all share (assay): growth of human tumour cells (NCI), 48 h
The subject of experiment [1] is EKVX NSCLC.
Experiment [2] deals with HCC-2998 colon.
Experiment [3] deals with M19-MEL melanoma.
In experiment [4] the test system is MALME-3M melanoma.
Experiment [5] has as its system OVCAR-3 ovarian.
The subject of experiment [6] is RXF 393 renal.
The test system of experiment [7] is ACHN renal.
Experiment [8] has as its system MDA-N.
Experiment [9] concerns PC-3 prostate.
Experiment [10] has as its system SK-OV-3 ovarian.

With `CCCCCCc1cn([C@H]2C[C@H](O)[C@@H](CO)O2)c(=O)[nH]c1=O`, the TGI in experiment [1], in [2], in experiment [3], in [4], in experiment [5] and in experiment [6] was greater than 100 µM throughout.

Regarding `C=C1CC(OC)(C(O)C(=O)N[C@H]2OCO[C@H]3C2O[C@H](C[C@H](O)COC)C(C)(C)C3OC)O[C@H](C)[C@@H]1C` (stereo partly drawn), the TGI in experiment [1], in experiment [2], in [3], in experiment [5] and in experiment [6] was greater than 0.00772 µM each time.

Take `Nc1ccc(-c2nc3ccccc3s2)cc1`: the TGI was 31.8 µM in experiment [7]; 87.4 µM in experiment [1]; greater than 100 µM in [2]; greater than 100 µM in experiment [3]; 45 µM in experiment [4]; 35.2 µM in experiment [8]. Also, the TGI is 33.3 µM in experiment [5], 29.2 µM in experiment [9], 33.5 µM in experiment [6] and greater than 100 µM in [10].

For the molecule `C[C@@H]1OCC(O)C([C@H]2OC(c3ccccc3)=N[C@H]2CO)O1` (stereo partly drawn), the TGI in experiment [7], in [1], in [2], in experiment [4], in [8] and in experiment [5] was greater than 100 µM each time. The TGI in experiment [9], in experiment [6] and in experiment [10] was greater than 100 µM each time.

Turning to `OC(O)(C(F)(F)F)C(F)(F)F`, the TGI in experiment [7], in experiment [1], in experiment [2], in experiment [4], in experiment [8] and in [5] was greater than 100 µM throughout. The TGI in experiment [9], in [6] and in [10] was greater than 100 µM each time.

With `C/C(=C\c1ccccc1)C(=O)NCc1ccc(C(=O)NCCc2c[nH]c3ccccc23)cc1`, the TGI in [7] was greater than 100 µM; in [1], greater than 100 µM; in experiment [2], 96.3 µM; in experiment [4], greater than 100 µM; in experiment [8] it was greater than 100 µM; in [5], greater than 100 µM. The TGI in experiment [9], in [6] and in [10] was greater than 100 µM in each case.

Turning to `c1ccc2c(c1)c1c3n2-c2cc(on2)C3CCC1` (stereo not drawn), the TGI in [7], in experiment [1], in experiment [2], in [4], in experiment [8] and in [5] was greater than 100 µM in each case. Besides, the TGI in experiment [9], in experiment [6] and in [10] was greater than 100 µM in each case.

As for `C=C1C(=O)O[C@H]2C3C(=C(C)CC[C@@H]12)C(=O)[C@@H]1OC31C` (stereo partly drawn), the TGI in experiment [7] is 8.07 µM; in experiment [1], 33.2 µM; in experiment [2], 29.7 µM; in [4] it was 4.66 µM; in experiment [8], 3.95 µM; in experiment [5], 4.38 µM. For the same molecule, the TGI in experiment [9] was found to be 7.1 µM; in experiment [6] it was 2.99 µM; in [10], 29.4 µM.

`O=C(O)CCCc1ccc2c(c1)CC1(C2)Cc2ccc(CCCC(=O)O)cc2C1`: the TGI in experiment [7], in experiment [1], in experiment [2], in experiment [4], in [8] and in experiment [5] was greater than 100 µM throughout. Besides, the TGI in [9], in experiment [6] and in [10] was greater than 100 µM each time.

On to `C/C(=C\CNc1nc(Cl)nc2nc[nH]c12)CO`, for which the TGI in [7], in experiment [1], in [2], in [4], in [8] and in [5] was greater than 100 µM each time. Also, the TGI in experiment [9], in experiment [6] and in experiment [10] was greater than 100 µM each time.

As to `Cn1c(=O)c2sc3cc4c(cc3c2c2ccccc21)sc1c(=O)n(C)c2ccccc2c14`, the TGI in experiment [7] is 54.8 µM; in experiment [1], greater than 100 µM; in [2], greater than 100 µM; in experiment [4], greater than 100 µM; in [8], greater than 100 µM; in experiment [5] it was greater than 100 µM. Besides, the TGI was greater than 100 µM in [9], 45 µM in [6] and greater than 100 µM in experiment [10].

For the molecule `O=C(C=P(c1ccccc1)(c1ccccc1)c1ccccc1)c1ccc(-c2ccc(F)cc2F)cc1`, the TGI in [7] turned out to be 6.76 µM; in experiment [1], 11 µM; in experiment [2], 4.12 µM; in [4], 7.17 µM; in experiment [8], 8.8 µM; in experiment [5] it was 5.19 µM. Besides, the TGI in experiment [9] worked out at 17.5 µM; in experiment [6], 7.29 µM; in experiment [10], 8.63 µM.

With `COC1=CC(=O)c2c(cc(COP(=O)(N(C)CCBr)N(C)CCBr)n2C)C1=O`, the TGI stood at 0.492 µM in [7]; 6.55 µM in experiment [1]; 1.77 µM in [2]; 2.95 µM in experiment [4]; 2.77 µM in experiment [8]; 10.7 µM in experiment [5]. The values for the TGI in [9], in experiment [6] and in experiment [10] were greater than 83.2 µM, 1.95 µM and 8.3 µM, respectively.

`COC(=O)/C=C\C(C#N)(C#N)N=Cc1ccsc1`: the TGI in experiment [7] is 2.72 µM; in experiment [1], 12.5 µM; in experiment [2] it was 29.6 µM; in [4], 3.5 µM; in experiment [8], 8.66 µM; in [5], 5.37 µM. The TGI in experiment [9] turned out to be 25.4 µM; in [6], 3.72 µM; in experiment [10] it was 31.3 µM.

For the molecule `CC(=O)[C@H]1CCC2[C@@H]3CC=C4C(O)C(OS(=O)(=O)O)CC[C@]4(C)C3CC[C@@]21C` (stereo partly drawn), the TGI in [1], in experiment [2], in experiment [3], in [4], in experiment [5] and in experiment [6] was greater than 100 µM throughout. Besides, in experiment [10], the TGI was greater than 100 µM.

As for `NC1CCCCC1N.O=S(=O)([O-])CCCN1CCN(CCO)CC1.O=S(=O)([O-])CCCN1CCN(CCO)CC1.[Pt+4]`, the GI50 in [1] is 55.4 µM; in [2] it was 9.55 µM; in [3], 1.18 µM; in [4] it was 3.08 µM; in experiment [5], 4.44 µM; in experiment [6] it was 15.9 µM. The GI50 in experiment [10] is greater than 87.2 µM. Moreover, the TGI was greater than 100 µM in experiment [1]; greater than 63.4 µM in experiment [2]; 16.2 µM in experiment [3]; 28.3 µM in [4]; greater than 36.4 µM in experiment [5]; 82.5 µM in experiment [6]. Further, the TGI in experiment [10] was greater than 100 µM.

For `C=C(C(=O)OC)[C@H]1CC/C(C)=C/CC/C(C)=C/CC[C@@]2(C)O[C@@H]2C1`, the TGI in experiment [7] is 34.5 µM; in experiment [1], 39.5 µM; in [2] it was 30.8 µM; in [4], 63.3 µM; in [8] it was 36.4 µM; in experiment [5] it was 34.4 µM. Moreover, the TGI in experiment [9] was 46.4 µM; in experiment [6], 28.8 µM; in experiment [10] it was greater than 100 µM.

For `CC(=O)Nc1ccc(/C=C(\NC(=O)c2ccccc2)C(=O)NNS(=O)(=O)c2ccc(C)cc2)cc1`, the TGI in experiment [7], in [1], in experiment [2], in experiment [3], in [4] and in [5] was greater than 100 µM in each case. Besides, the TGI in experiment [6] and in [10] was greater than 100 µM throughout.
